{"source": "patent US20190070208A1", "about": "“USE OF TRIACETYL-3-HYDROXYPHENYLADENOSINE IN PREPARING PHARMACEUTICALS FOR TREATMENT OF ATHEROSCLEROSIS” (priority 2016, published 2019)", "type_in_all_cases": "in vivo", "set-up_in_all_cases": "unit not given here", "key": {"[1]": {"test_system": "circulating blood mononuclear cells", "assay": "Circulating blood mononuclear cells of high-fat-fed Syrian golden hamsters (whole blood cell analyzer)", "details": "gavage twice a day, high-fat feedstuff hamsters, individual animal values (n=13)", "protocol": "[…] Syrian golden hamsters (LVG hamsters, introduced from Charles River Laboratories) aged 6-8 weeks, weighing 90-120 g, male, SPF grade and purchased from Beijing Vital River Laboratory Animal Technology Co., Ltd.\nAfter 7 days of adaptive feeding, animals were randomly divided into a normal control group (n=13), a high-fat feedstuff group (n=13), an IMMH007 low-dose group (50 mg/kg, n=13), an IMMH007 medium-dose group (100 mg/kg, n=13), and an IMMH007 high-dose group (200 mg/kg, n=13), and they were administered twice a day by gavage. The animals were fed in the Second Department of Animal Experiment Center of the Institute of Materia Medica (IMM) at Chinese Academy of Medical Sciences (CAMS); the feeding condition was SPF grade, the temperature was 21±2 DEG C, relative humidity was 50±5%, lighting cycle was 12/12, and 5 per cage. The normal group was fed with normal basal feedstuff, and the high-fat feedstuff group was fed with high fat feedstuff (79.8% of basal feedstuff, 20% of lard, and 0.2% of cholesterol), and the animals were free to take food and drink. The feedstuff was produced by Beijing HFK Bioscience Co., Ltd.\nThe animals were fasted for 12 hours, and about 200 ul of blood was taken from the canthus of each eye, the blood was dissolved in 30ul of EDTA-2K anticoagulant (20g/L, prepared with normal saline), mixed slightly to avoid coagulation, and the whole blood cells were analyzed by a whole blood cell analyzer."}, "[2]": {"test_system": "circulating blood mononuclear cells", "assay": "Circulating blood mononuclear cells of high-fat-fed apoE-/- mice (flow cytometry)", "details": "gavage once a day, high-fat diet apoE-/- mice", "protocol": "(§1) ApoE-/-mice (C57BL background), 5-7 weeks old, body weight 18-22 g, male, SPF grade; Purchased from Beijing institute of Laboratory Animal Science.\n(§2) After 7 days of adaptive feeding, animals were randomly divided into a high-fat feedstuff group (n=7), an MMH007 low-dose group (50 mg/kg, n=7), an IMMH007 medium-dose group (100 mg/kg, n=7), and an IMMH007 high-dose group (200 mg/kg, n=9), and they were administered once a day by gavage. The animals were fed in the Second Department of Animal Experiment Center of the Institute of Materia Medica (IMM) at Chinese Academy of Medical Sciences (CAMS); the feeding condition was SPF grade, the temperature was 21±2 DEG C, relative humidity was 50±5%, lighting cycle was 12/12, and 5 per cage. All groups were given high-fat diet (70% of basal diet plus 20% of lard and 0.2% of cholesterol) and the animals were free to take food and drink. The feedstuff was produced by Beijing HFK Bioscience Co., Ltd. Body weight was recorded once every week during the experiment.\n(§3) The animals were fasted for 12 hours and the following cells were extracted:\n(§4) Recirculating blood cells: 50 ul of blood was taken by cardiocentesis, placed in 450 ul of heparin anticoagulant, 1 ml of red blood cell lysis buffer was added, lysed for 10 minutes, centrifuged at 1800 r for 3 min, the supernatant was aspirated, and 100 ul of PBS suspension cells were obtained for subsequent use. The mouse was taken blood from the angular vein to be dead and serum was separated and stored at −80 DEG C.\n(§5) Antibodies were added to the above blood cells:\n(§6) 3 ul of CD90-PE, 3 ul of B220-PE, 3 ul of CD49b-PE, 3 ul of NK1.1-PE, 3 ul of Ly-6G-PE, 6 ul of CD11b-percp, and 3 ul of Ly-6C-FITC, a single positive tube and a blank control tube were provided, they were incubated with smoothie for 30 min, washed 3 times with PBS, and re-selected cells with 400 ul of PBS, filtered, and flow cytometry was carried out. The mononuclear cells were identified as CD11b^hiCD90^loB220^loCD49b^loNK1.1^loLy-6G^lo cells. […]"}, "[3]": {"test_system": "circulating blood inflammatory mononuclear cells (Ly6C^hi)", "assay": "Circulating blood inflammatory (Ly6Chi) mononuclear cells of high-fat-fed apoE-/- mice (flow cytometry)", "details": "gavage once a day, high-fat diet apoE-/- mice", "protocol": "as §1, §2, §3, §4, §5, §6"}, "[4]": {"details": "IMM-H007 50 mg/kg, individual animal values (n=7), 50 mg/kg"}, "[5]": {"details": "IMM-H007 100 mg/kg, individual animal values (n=7), 100 mg/kg"}, "[6]": {"details": "IMM-H007 200 mg/kg, individual animal values (n=9), 200 mg/kg"}}, "note": "“And” between values parts separate entries of the source, which are not always exact repeats. Equal values may be shown once.", "data": [{"smiles": "CC(=O)OCC1OC(n2cnc3c(Nc4cccc(O)c4)ncnc32)C(OC(C)=O)C1OC(C)=O", "note": "(stereo not drawn) [IMM-H007, Triacetyl-3-Hydroxyphenyladenosine]", "values": [{"measurement": "circulating blood mononuclear cells", "setting": "[1]; IMM-H007 50 mg/kg, 50 mg/kg", "value": "6.63 and 5.31 and 7.58 and 11.2 and 10.1 and 11 and 10.4 and 9.08 and 6.95 and 8.24 and 9.21 and 6.5 and 8.91"}, {"measurement": "circulating blood mononuclear cells", "setting": "[1]; IMM-H007 100 mg/kg, 100 mg/kg", "value": "6.23 and 4.18 and 3.87 and 6.05 and 6.02 and 7.99 and 6.79 and 9.61 and 6.42 and 10.4 and 6.8 and 7.54 and 4.56"}, {"measurement": "circulating blood mononuclear cells", "setting": "[1]; IMM-H007 200 mg/kg, 200 mg/kg", "value": "4.42 and 6.33 and 9.94 and 9.51 and 10.3 (2×) and 6.28 and 9.61 and 9.85 and 10.8 and 8.52 and 9.23 and 5.7"}, {"measurement": "circulating blood mononuclear cells", "setting": "[2]; [4]", "value": "0.54 and 0.49 (2×) and 1.23 and 0.66 and 0.63 and 0.26"}, {"measurement": "circulating blood mononuclear cells", "setting": "[2]; [5]", "value": "0.79 and 0.48 and 0.30 and 0.14 and 0.29 and 0.27 and 0.25"}, {"measurement": "circulating blood mononuclear cells", "setting": "[2]; [6]", "value": "0.18 (2×) and 0.69 and 0.28 and 0.24 and 0.27 and 0.23 and 0.21 and 0.10"}, {"measurement": "circulating blood inflammatory mononuclear cells", "setting": "[3]; [4]", "value": "0.33 and 0.86 and 0.18 and 0.23 and 0.89 and 0.16 and 0.49"}, {"measurement": "circulating blood inflammatory mononuclear cells", "setting": "[3]; [5]", "value": "0.31 and 0.19 and 0.32 and 0.29 and 0.30 and 0.89 and 0.26"}, {"measurement": "circulating blood inflammatory mononuclear cells", "setting": "[3]; [6]", "value": "0.19 and 0.35 and 0.17 and 0.20 and 0.30 and 0.13 and 0.15 and 0.28 and 0.21"}]}]}
